{
  "source": "patent US10799505B2",
  "about": "“Crystalline form of (S)-N-(5-((R)-2-(2,5-difluorophenyl)-pyrrolidin-1-yl)-pyrazolo[1,5-A]pyrimidin-3-yl)-3-hydroxypyrrolidine-1-carboxamide hydrogen sulfate” (Array BioPharma, Inc., priority 2014, dated 2020)",
  "type_in_all_cases": "physicochemical",
  "key": {"[1]": {"test": "Dynamic vapor sorption / humidity exposure (IGAsorp, 25° C.)", "conditions": "at 80% RH, hydrogen sulfate", "description": "• 1. The hygroscopicity was studied at 25° C. using an IGAsorp analyzer. • 2. About 15 mg of sample was placed in a tared mesh sample holder at an initial ambient room humidity setting of ˜35%. • 3. A total wet/dry nitrogen flow rate of 250 cc/min is used throughout the study. • 4. […] The maximum time allowed at any one humidity set point was 120 min. The sample was maintained under dry N2 after the cycle was completed. Percent weight gain was calculated based on the dry weight basis."}, "[2]": {"test": "Dynamic vapor sorption (DVS-1 system)", "conditions": "for DVS (outcome): HCl: at 50-60% RH", "description": "For the DVS measurement a sample of crystalline form (I-HS) was cycled through changing humidity conditions to determine its hygroscopicity. The sample was analyzed using a Surface Measurement System DVS-1 Dynamic Vapor Sorption System. […] Data was collected in 1 minute intervals. Nitrogen was used as the carrier gas. […] After completion of the sorption cycle, the sample was dried using the same procedure, but all the way down to 0% RH and finally taken back to the starting point of 20% RH. The weight change during the sorption/desorption cycles were plotted, allowing for the hygroscopic nature of the sample to be determined."}, "[3]": {"test": "Stability on aluminum slide at 40° Celsius/75% RH", "conditions": "I-HS 10 days; HCl after 1 hour; HBr after 2 weeks; mesylate overnight"}, "[4]": {"test": "Accelerated stability, open vials in LDPE bag, 40° C./75% RH, five weeks", "description": "Upon removal from the chamber, the samples were physically characterized by appearance, KF, TGA, DSC, XRD and PLM. The samples were also analyzed by HPLC for chromatographic purity, chiral integrity and potency. Where applicable, the data presented in the stability portion also includes the original T=0 data for comparison purposes. The data can be seen in Tables 25-29 and FIGS. 40-44."}, "Angle of repose": {"test": "Angle of repose", "conditions": "for Angle of Repose θ: one side of the pile; for Angle of Repose φ: other side of the pile", "description": "The angle of repose is the angle formed by the horizontal base of the surface and the edge of a cone-like pile of granules. It is calculated from the following equation: […]\nThe angle of repose was measured by slowly pouring approximately 1 g of sample through a funnel with a 3/16″ inner diameter of the outlet. The powder then fell 1 11/16″ to land on the surface of an overturned crystallization dish on which a pile of powder formed. A picture was taken of the pile after addition of all of the material. The angle between the dish surface and the surface of the pile was measure via a protractor on the pictures. Care was taken to replicate the same positions and fall distances in the set up between different samples."}, "[5]": {"test": "Bulk and tap densities, Carr's Index, Hausner Ratio", "description": "The powder was added to a pre-weighed 10 mL graduated cylinder through a funnel that was not in direct contact with the graduated cylinder to avoid transference of vibrations. Powder was added until a 10 mL volume was reached and then the graduated cylinder with powder was weighed. The bulk density was calculated by\n[formula] The same sample in the graduated cylinder was tapped for the following sequence: 100, 150, 250, 250 taps. The volume was measured after each interval. The tapped density was calculated by\nThe Carr's Index was calculated according to the following equation: […]\nThe Hausner Ratio was calculated with the following equation: […]"}},
  "data": [
    {"molecule": "O=C(Nc1cnn2ccc(N3CCC[C@@H]3c3cc(F)ccc3F)nc12)N1CC[C@H](O)C1.O=S(=O)(O)O", "note": "[AM(HS)2, (S)—N-(5-((R)-2-(2,5-difluorophenyl)-pyrrolidin-1-yl)-pyrazolo[1,5-a]pyrimidin-3-yl)-3-hydroxypyrrolidine-1-carboxamide hydrogen sulfate]", "values": [
      {"measurement": "mass gained in DVS", "setting": "[1]", "value": "~12", "unit": "%"}
    ]},
    {"molecule": "Br.O=C(Nc1cnn2ccc(N3CCC[C@@H]3c3cc(F)ccc3F)nc12)N1CC[C@H](O)C1", "note": "[HBr, (S)—N-(5-((R)-2-(2,5-difluorophenyl)pyrrolidin-1-yl)pyrazolo[1,5-a]pyrimidin-3-yl)-3-hydroxypyrrolidine-1-carboxamide hydrobromide]", "values": [
      {"measurement": "DVS (outcome)", "setting": "[2]", "value": "(deliquesced)"},
      {"measurement": "DVS weight gain", "setting": "[2]; at 80% RH", "value": "~3.9", "unit": "% gain at 80%"},
      {"measurement": "DVS weight gain", "setting": "[2]; at 90% RH", "value": "~25", "unit": "% gain at 90%"},
      {"measurement": "Stability at 40° Celsius/75% RH (aluminum slide)", "setting": "[3]", "value": "amorphous"}
    ]},
    {"molecule": "O=C(Nc1cnn2ccc(N3CCC[C@@H]3c3cc(F)ccc3F)nc12)N1CC[C@H](O)C1.O=S(=O)(O)O", "note": "[AM(HS)1, (S)—N-(5-((R)-2-(2,5-difluorophenyl)-pyrrolidin-1-yl)-pyrazolo[1,5-a]pyrimidin-3-yl)-3-hydroxypyrrolidine-1-carboxamide hydrogen sulfate]", "values": [
      {"measurement": "Appearance", "setting": "[4]; 40° C./75% RH, 5 wks", "value": "Orange Powder"},
      {"measurement": "Assay (HPLC)", "setting": "[4]; 40° C./75% RH, 5 wks", "value": 80.3, "unit": "%"},
      {"measurement": "Chiral Potency (HPLC)", "setting": "[4]; 40° C./75% RH, 5 wks", "value": 99.6, "unit": "%"},
      {"measurement": "KF (water content)", "setting": "[4]; 40° C./75% RH, 5 wks", "value": 0.56, "unit": "w/w %"},
      {"measurement": "Peak Area Percent, RRT 0.793", "setting": "[4]; 40° C./75% RH, 5 wks", "value": 0.00},
      {"measurement": "Peak Area Percent, RRT 0.863", "setting": "[4]; 40° C./75% RH, 5 wks", "value": 1.04},
      {"measurement": "Peak Area Percent, RRT 0.981", "setting": "[4]; 40° C./75% RH, 5 wks", "value": 0.12},
      {"measurement": "Peak Area Percent, RRT 1.000", "setting": "[4]; 40° C./75% RH, 5 wks", "value": 98.83},
      {"measurement": "Peak Area Percent, RRT 1.535", "setting": "[4]; 40° C./75% RH, 5 wks", "value": 0.00},
      {"measurement": "Total Impurities (HPLC)", "setting": "[4]; 40° C./75% RH, 5 wks", "value": 1.16, "unit": "%"},
      {"measurement": "change of API chemical purity", "setting": "[4]; 40° C./75% RH, five weeks", "value": "did not change significantly"},
      {"measurement": "Appearance", "setting": "[4]; time point 0 wks", "value": "Yellow Powder"},
      {"measurement": "Assay (HPLC)", "setting": "[4]; time point 0 wks", "value": 79.5, "unit": "%"},
      {"measurement": "Chiral Potency (HPLC)", "setting": "[4]; time point 0 wks", "value": 99.6, "unit": "%"},
      {"measurement": "KF (water content)", "setting": "[4]; time point 0 wks", "value": 2.00, "unit": "w/w %"},
      {"measurement": "Peak Area Percent, RRT 0.793", "setting": "[4]; time point 0 wks", "value": 0.00},
      {"measurement": "Peak Area Percent, RRT 0.863", "setting": "[4]; time point 0 wks", "value": 0.98},
      {"measurement": "Peak Area Percent, RRT 0.981", "setting": "[4]; time point 0 wks", "value": 0.12},
      {"measurement": "Peak Area Percent, RRT 1.000", "setting": "[4]; time point 0 wks", "value": 98.89},
      {"measurement": "Peak Area Percent, RRT 1.535", "setting": "[4]; time point 0 wks", "value": 0.00},
      {"measurement": "Total Impurities (HPLC)", "setting": "[4]; time point 0 wks", "value": 1.10, "unit": "%"},
      {"measurement": "mass gained in DVS", "setting": "[1]", "value": "greater than 13%"}
    ]},
    {"molecule": "Cl.O=C(Nc1cnn2ccc(N3CCC[C@@H]3c3cc(F)ccc3F)nc12)N1CC[C@H](O)C1", "note": "[HCl, (S)—N-(5-((R)-2-(2,5-difluorophenyl)pyrrolidine-1-yl)pyrazolo[1,5-a]pyrimidin-3-yl)-3-hydroxypyrrolidine-1-carboxamide hydrochloride]", "values": [
      {"measurement": "DVS (outcome)", "setting": "[2]", "value": "form change"},
      {"measurement": "DVS weight gain", "setting": "[2]; at 50% RH", "value": "~1", "unit": "% gain at 50%"},
      {"measurement": "Stability at 40° Celsius/75% RH (aluminum slide)", "setting": "[3]", "value": "form change"}
    ]},
    {"molecule": "O=C(Nc1cnn2ccc(N3CCC[C@@H]3c3cc(F)ccc3F)nc12)N1CC[C@H](O)C1", "note": "[L-ARR10-118]", "values": [
      {"measurement": "Angle of Repose Average", "setting": "Angle of repose", "value": 50.28, "unit": "°"},
      {"measurement": "Angle of Repose θ", "setting": "Angle of repose", "value": 50.28, "unit": "°"},
      {"measurement": "Angle of Repose φ", "setting": "Angle of repose", "value": 50.28, "unit": "°"},
      {"measurement": "Bulk Density", "setting": "[5]", "value": 594.8, "unit": "mg/mL"},
      {"measurement": "Tapped Density", "setting": "[5]", "value": 762.6, "unit": "mg/mL"}
    ]},
    {"molecule": "CS(=O)(=O)O.O=C(Nc1cnn2ccc(N3CCC[C@@H]3c3cc(F)ccc3F)nc12)N1CC[C@H](O)C1", "note": "[Mesylate, (S)—N-(5-((R)-2-(2,5-difluorophenyl)pyrrolidin-1-yl)pyrazolo[1,5-a]pyrimidin-3-yl)-3-hydroxypyrrolidine-1-carboxamide methanesulfonate]", "values": [
      {"measurement": "DVS (outcome)", "setting": "[2]", "value": "(crystalline)"},
      {"measurement": "DVS weight gain", "setting": "[2]; at 80% RH", "value": "~9", "unit": "% gain at 80%"},
      {"measurement": "DVS weight gain", "setting": "[2]; at 90% RH", "value": "~50", "unit": "% gain at 90%"},
      {"measurement": "Stability at 40° Celsius/75% RH (aluminum slide)", "setting": "[3]", "value": "Deliquesced"}
    ]},
    {"molecule": "O=C(Nc1cnn2ccc(N3CCC[C@@H]3c3cc(F)ccc3F)nc12)N1CC[C@H](O)C1.O=S(=O)(O)O", "note": "[AR00457470-33]", "values": [
      {"measurement": "Angle of Repose Average", "setting": "Angle of repose", "value": 45.70, "unit": "°"},
      {"measurement": "Angle of Repose θ", "setting": "Angle of repose", "value": 47.79, "unit": "°"},
      {"measurement": "Angle of Repose φ", "setting": "Angle of repose", "value": 43.6, "unit": "°"},
      {"measurement": "Bulk Density", "setting": "[5]", "value": 423.6, "unit": "mg/mL"},
      {"measurement": "Tapped Density", "setting": "[5]", "value": 622.9, "unit": "mg/mL"}
    ]}
  ]
}
